Consider 3 compounds from patent US5625095A, “Process for producing high purity acetic acid” (Daicel Chemical Industries, Ltd., priority 1994, dated 1997).

Molecules are shown by their SMILES.

The conditions of data set [1]: cited from earlier work.
Data set [2] in a line: solubility of metaldehyde in methyl iodide, alcohols and their mixtures. In kind it is physicochemical. The conditions noted are these: for recrystallization temperature: bottom products composition. Here is the method: That is, distillation in the presence of alcohols has made it possible to prevent clogging.
It has been confirmed that in the composition of bottom products from the distillation column in the continuous production process for acetic acid, the recrystallization temperature is 18° C. at a methyl iodide/methanol weight ratio of 3/1, 12° C. at 5/4, 6° C. at 3/4, and -9° C. or lower at 1/2. The preferred methyl iodide/methanol weight ratio, which depends on a thermal insulation state, is 5/4 to 1/2.

With `CI` [methyl iodide], in data set [1], the miscibility with water entry was “scarcely miscible”.
Regarding `CC1OC(C)OC(C)OC(C)O1` (stereo not drawn) [metaldehyde], the dissolution in alcohols result in data set [2] (alcohols such as methanol, ethanol, and propanol) is “dissolved”. In addition, the recrystallization temperature is at most -9 °C in data set [2] (methyl iodide/methanol weight ratio 1/2), 18 °C in data set [2] (methyl iodide/methanol weight ratio 3/1), 6 °C in data set [2] (methyl iodide/methanol weight ratio 3/4) and 12 °C in data set [2] (methyl iodide/methanol weight ratio 5/4). Besides, the “order of increasing solubilities” value in data set [2] (methyl iodide, acetaldehyde, methanol, mixed solution of methyl iodide and methanol) was “methyl iodide<<acetaldehyde=methanol<mixed solution of methyl iodide and methanol”. In addition, the solubility result in data set [2] (particularly to methyl iodide) was “low solubility”.
Turning to `CC=O` [acetaldehyde], the miscibility with water result in data set [1] is recorded as “well miscible”.
